From PMC12692346, “Imidazolinium-Based NHC–Metal Complexes Overcome Both Cancer Multidrug Resistance and Cisplatin Resistance In Vitro” (International Journal of Molecular Sciences, 2025)

How the values were obtained:
[1] = tested on: Mes-Sa/B1 mOrange; test: Triple coculture fluorescence cytotoxicity test, ABCB1-transfected MDR line; format: cell-based, human; conditions: for RR_B1 resistance ratio (IC50_MDR line / IC50_parental line) of Mes-Sa/B1: Mes-Sa/B1 vs Mes-Sa; for IC50: triple coculture, 144 h incubation, fluorescence readout
Method: (§1) All synthesized complexes and representatives of the respective ligands (Lb, Lc, SIPr, IPr) were tested in a triple coculture of uterine sarcoma cell lines, consisting of the parental Mes-Sa cell line, and its MDR derivatives Mes-Sa/B1 and Mes-Sa/Dx5, transfected or selected in doxorubicin to overexpress P-glycoprotein, respectively (Figure 2a–c, Table S2). Each cell line expresses a distinct fluorescent protein (mCherry, mOrange, and eGFP, respectively), and the total fluorescence of a well is proportional to the cell number, allowing the assessment of compound cytotoxicity.
(§2) In a triple coculture system, cell lines expressing different fluorescent proteins were seeded in the same well. Cell lines (Mes-Sa mCherry, Mes-Sa/B1 mOrange, Mes-Sa/Dx5 eGFP [25]) were admixed and seeded on 384-well plates at a density of 3 × 800 cells/well (1:1:1 ratio), resulting in an overall total of 2400 cells. The next day, serially diluted compounds were added to the wells. Liquid handling was managed by a Hamilton StarLet pipetting robot. After 144 h of incubation, the fluorescence of mCherry (ex/em: 585/610 nm), mOrange (ex/em: 545/567 nm) and eGFP (ex/em: 485/510 nm) was recorded with an EnSpire plate reader (PerkinElmer, Waltham, MA, USA).
(§3) pIC50 values derived from both co- and monoculture systems were determined by a custom program written in C# [25], then average and standard deviations were calculated and transformed to IC50 values. Every compound was tested in at least 3 independent experiments in triplicates.

[2] = tested on: Mes-Sa/Dx5 eGFP; test: Triple coculture fluorescence cytotoxicity test, doxorubicin-selected MDR line; format: cell-based, human; conditions: for RR_Dx5 resistance ratio (IC50_MDR line / IC50_parental line) of Mes-Sa/Dx5: Mes-Sa/Dx5 vs Mes-Sa; for IC50: triple coculture, 144 h incubation, fluorescence readout
Method: as §1, §2, §3

[3] = tested on: CST murine breast cancer cell line; test: Monoculture PrestoBlue cytotoxicity test, CST; format: cell-based, mouse; conditions: 120 h exposure
Method: (§4) CST, a drug-naïve murine breast cancer cell line, and cisplatin-resistant cells CST-2/3 were seeded in monoculture into 384-well plates (Corning Inc., Corning, NY, USA) at a density of 2500 cells per well using automated liquid-handling. The cells were preincubated for 24 h to ensure adherence, followed by the addition of serially diluted compounds to a final well volume of 60 µL. Following 120 h of continuous drug exposure, cell viability was quantified using the PrestoBlue viability assay (Thermo Fisher Scientific, Waltham, MA, USA) after 1 h incubation at 555 nm excitation and 585 nm emission wavelengths.
as §3

[4] = tested on: CST-2/3 cisplatin-resistant cells; test: Monoculture PrestoBlue cytotoxicity test, cisplatin-resistant CST-2/3; format: cell-based, mouse; conditions: for RR_CST resistance ratio (IC50_CST-2/3 / IC50_CST): CST-2/3 vs CST; for IC50: monoculture, 120 h exposure, PrestoBlue
Method: as §4, §3

[5] = tested on: Mes-Sa mCherry uterine sarcoma cell line; test: Triple coculture fluorescence cytotoxicity test, parental line; format: cell-based, human; conditions: 144 h incubation, fluorescence readout
Method: as §1, §2, §3

Row | SMILES | RR_B1 resistance ratio (IC50_MDR line / IC50_parental line) of Mes-Sa/B1 [1] | IC50 [1] [µM] | RR_Dx5 resistance ratio (IC50_MDR line / IC50_parental line) of Mes-Sa/Dx5 [2] | IC50 [2] [µM] | IC50 [5] [µM] | further results
1 | CC(C)c1cccc(C(C)C)c1N1[C](=[Ag][Cl])N([C@H](C)c2ccc3ccccc3c2)C[C@@H]1C(C)(C)C [Compound 2e] | 7.9 | 7.37 | 5.6 | 5.25 | 0.93 | IC50 [3]: 1.28 µM; RR_CST resistance ratio (IC50_CST-2/3 / IC50_CST) [4]: 1.5; IC50 [4]: 1.98 µM
2 | CC(C)c1cccc(C(C)C)c1N1[CH]([Cu][Cl])N([C@H](C)c2ccccc2)C[C@@H]1C(C)(C)C (some centres unmarked) [Compound 1c] | 6.9 | 5.5 | 1.5 | 1.18 | 0.8 | RR_B1 resistance ratio (IC50_MDR line / IC50_parental line) of Mes-Sa/B1 ([1]; listed as 1c*): 5.4; IC50 ([1]; listed as 1c*): 3.97 µM; RR_Dx5 resistance ratio (IC50_MDR line / IC50_parental line) of Mes-Sa/Dx5 ([2]; listed as 1c*): 2.9; IC50 ([2]; listed as 1c*): 2.18 µM; IC50 ([5]; listed as 1c*): 0.74 µM
3 | CC(C)c1cccc(C(C)C)c1N1[C](=[Ag][Cl])N([C@@H](C)C(C)(C)C)C[C@@H]1C(C)(C)C [Compound 2f] | 5.1 | 3.77 | 1.8 | 1.37 | 0.74 | 
4 | CC(C)c1cccc(C(C)C)c1-n1cc[n+](-c2c(C(C)C)cccc2C(C)C)c1 [IPr, reference compound] | 15.5 |  | 23.4 |  |  | IC50 ([1]; Homo sapiens, MES-SA): 33.9 µM; IC50 ([2]; Homo sapiens, MES-SA/Dx5): 51.3 µM; IC50 ([5]; Homo sapiens, MES-SA): 2.19 µM
5 | CC(C)c1cccc(C(C)C)c1N1[C](=[Au][Cl])N([C@@H](C)c2ccccc2)C[C@@H]1C(C)(C)C [Compound 3b] | 2.4 | 14.8 | 1.6 | 9.92 | 6.17 | IC50 [3]: 22.9 µM; RR_CST resistance ratio (IC50_CST-2/3 / IC50_CST) [4]: 1.1; IC50 [4]: 25.1 µM
6 | CC(C)c1cccc(C(C)C)c1N1[CH]([Cu][Cl])N(Cc2ccccc2)C[C@@H]1C(C)(C)C (some centres unmarked) [Compound 1a] | 4.7 | 2.45 | 1.3 | 0.69 | 0.52 | 
7 | C=C[CH2][Pd]([Cl])=[C]1N([C@@H](C)c2ccccc2)C[C@H](C(C)(C)C)N1c1c(C(C)C)cccc1C(C)C [Compound 4b] | 1.8 | 9.33 | 2.4 | 12.2 | 5.19 | 
8 | CC(C)c1cccc(C(C)C)c1N1C=[N+]([C@@H](C)c2ccccc2)C[C@@H]1C(C)(C)C [Lb] | 22.7 |  | 26.1 |  |  | IC50 ([1]; Homo sapiens, MES-SA): 41.7 µM; IC50 ([2]; Homo sapiens, MES-SA/Dx5): 47.9 µM; IC50 ([3]; Mus musculus): 4.95 µM; RR_CST resistance ratio (IC50_CST-2/3 / IC50_CST) [4]: 2.0; IC50 ([4]; Mus musculus): 9.69 µM; IC50 ([5]; Homo sapiens, MES-SA): 1.83 µM
9 | CC(C)c1cccc(C(C)C)c1N1[C](=[Au][Cl])N([C@@H](C)C(C)(C)C)C[C@@H]1C(C)(C)C [Compound 3f] | 1.6 | 18.6 | 1.2 | 13.8 | 11.4 | 
10 | CC(C)c1cccc(C(C)C)c1N1[C](=[Ag][Cl])N([C@@H](C)c2ccccc2)C[C@@H]1C(C)(C)C [Compound 2b] | 19.1 | 14.3 | 7.3 | 5.5 | 0.75 | IC50 [3]: 1.01 µM; RR_CST resistance ratio (IC50_CST-2/3 / IC50_CST) [4]: 2.2; IC50 [4]: 2.17 µM
11 | CC(C)c1cccc(C(C)C)c1N1[C](=[Ag][Cl])N([C@@H](C)c2cccc3ccccc23)C[C@@H]1C(C)(C)C [Compound 2d] | 9.6 | 5.2 | 6.2 | 3.37 | 0.54 | 
12 | COc1cc([C@@H]2c3cc4c(cc3[C@@H](O[C@@H]3O[C@@H]5CO[C@@H](C)O[C@H]5[C@H](O)[C@H]3O)[C@H]3COC(=O)[C@H]23)OCO4)cc(OC)c1O [Etoposide, reference compound] | 9.0 |  | 15.4 |  |  | IC50 ([1]; Homo sapiens, MES-SA): 1.11 µM; IC50 ([2]; Homo sapiens, MES-SA/Dx5): 1.9 µM; IC50 ([5]; Homo sapiens, MES-SA): 0.12 µM
13 | CC(C)c1cccc(C(C)C)c1N1[C](=[Au][Cl])N([C@H](C)c2ccc3ccccc3c2)C[C@@H]1C(C)(C)C [Compound 3e] | 2.6 | 19.1 | 2.3 | 16.9 | 7.47 | 
14 | N.N.O=C([O-])C1(C(=O)[O-])CCC1.[Pt+2] [Carboplatin, reference compound] |  |  |  |  |  | IC50 [3]: 0.89 µM; RR_CST resistance ratio (IC50_CST-2/3 / IC50_CST) [4]: 7.0; IC50 [4]: 6.24 µM
15 | CC(C)c1cccc(C(C)C)c1-n1ccn(-c2c(C(C)C)cccc2C(C)C)[c]1=[Cu+]=[c]1n(-c2c(C(C)C)cccc2C(C)C)ccn1-c1c(C(C)C)cccc1C(C)C.F[B-](F)(F)F [Compound 9b] | 38.0 | 2.19 | 37.3 | 2.15 | 0.058 | 
16 | CC(C)c1cccc(C(C)C)c1-n1ccn(-c2c(C(C)C)cccc2C(C)C)[c]1=[Au][Cl] [Compound 7b] | 1.9 | 36.3 | 3.2 | 60.3 | 18.6 | 
17 | CC(C)c1cccc(C(C)C)c1N1[C](=[Ag][Cl])N([C@H](C)c2ccccc2)C[C@@H]1C(C)(C)C [Compound 2c] | 8.5 | 14.4 | 4.2 | 7.14 | 1.69 | 
18 | CC(C)c1cccc(C(C)C)c1N1[C](=[Au][Cl])N([C@H](C)c2ccccc2)C[C@@H]1C(C)(C)C [Compound 3c] | 2.1 | 39.8 | 2.1 | 39.6 | 18.6 | 
19 | O=C1[O][Pt]2([NH][C@@H]3CCCC[C@H]3[NH]2)[O]C1=O [Oxaliplatin, reference compound] |  |  |  |  |  | IC50 [3]: 0.41 µM; RR_CST resistance ratio (IC50_CST-2/3 / IC50_CST) [4]: 9.3; IC50 [4]: 3.84 µM
20 | CC(C)c1cccc(C(C)C)c1N1[CH]([Cu][Cl])N([C@@H](C)C(C)(C)C)C[C@@H]1C(C)(C)C (some centres unmarked) [Compound 1f] | 2.7 | 8.13 | 1.4 | 4.19 | 3.04 | 
21 | CC(C)c1cccc(C(C)C)c1-n1ccn(-c2c(C(C)C)cccc2C(C)C)[c]1=[Cu][Cl] [Compound 5b] | 2.0 | 2 | 1.8 | 1.83 | 1.01 | 
22 | CC(C)c1cccc(C(C)C)c1N1C=[N+]([C@H](C)c2ccccc2)C[C@@H]1C(C)(C)C [Lc] | 21.4 |  | 30.4 |  |  | IC50 ([1]; Homo sapiens, MES-SA): 51.3 µM; IC50 ([2]; Homo sapiens, MES-SA/Dx5): 73 µM; IC50 ([5]; Homo sapiens, MES-SA): 2.4 µM
23 | CC(C)c1cccc(C(C)C)c1-n1ccn(-c2c(C(C)C)cccc2C(C)C)[c]1=[Ag][Cl] [Compound 6b] | 2.4 | 4.37 | 2.1 | 3.89 | 1.82 | 
